31 substances from article PMC10355216, “The C-terminal tail of CSNAP attenuates the CSN complex” (Life Science Alliance, 2023) can be followed below.

One assay deals with recombinant CSN complex. Description: Peptide array screen of C-CSNAP peptides with recombinant CSN (rCSN^WT).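 For all read-outs here: densitometric signal of CSN bound to each synthesized peptide spot, with an antibody-only array lacking CSN run to exclude non-specific binding, higher values meaning stronger binding.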 The conditions noted are these: for Average fold change, intensities as fold of C-CSNAP (A1): rCSN^WT on INTAVIS Celluspots array, anti-CSN3 and HRP secondary antibody, average of six replicates (three independent experiments in duplicates); for Average fold change: peptide array with rCSN, average of 3 experiments, left and right (n = 6), fold of C-CSNAP (A1). In kind it is binding.

The subject of another assay is CSN^ΔCSNAP complex. Put plainly: Peptide array screen of C-CSNAP peptides with rCSN^ΔCSNAP.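 Note: Array-printed peptides incubated with 0.5 µM CSN^ΔCSNAP, bound complex detected by anti-CSN3 antibody plus HRP-linked secondary, spot intensity expressed relative to the parent reference peptide spot.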 In kind it is binding. The conditions noted are these: average of 5 experiments.
[1] abbreviates: peptide array with rCSN^ΔCSNAP, left and right (n = 10), fold of C-CSNAP (A1).
Setting [2] is: peptide array, rCSN^ΔCSNAP, left and right spots.

Experimental for CSN^ΔCSNAP complex: Peptide array screen of modified C-CSNAP peptides. C-CSNAP peptide and its derivatives were printed on a microarray. The array was blocked and incubated with or without the CSN∆CSNAP complex and probed using an anti-CSN3 antibody and HRP-conjugated secondary antibody. To assess non-specific binding of the antibodies to the array, anti-CSN3 and anti-GAR-HRP were used without the addition of the COP9 signalosome complex (CSN). Signal intensity of each spot was measured and normalized to the intensity of the spot of C-CSNAP (A1). Measured values for each spot were averaged from six arrays and plotted with standard errors SEM.
(§1) Intensity values are normalized to the intensity of the 16AA C-CSNAP peptide (A1) on each array from three independent experiments in duplicates, and averages from the six replicates are calculated with SEM.
(§2) Optimization of C-CSNAP sequence for enhanced binding to recombinant CSN^ΔCSNAP was screened by printing the modified sequences of CSNAP or C-CSNAP (Phe to Trp, Asp to Glu, Ala screen, D-amino acid screen, N-α-methylation, and Aib incorporation on INTAVIS Celluspots array [2 × 384spots]). The array was blocked with 5% skim milk in TBS-0.5% Tween 20 (TBS-T) for 4 h at room temperature, washed three times in TBS-T, and then incubated with 0.5 μM CSN^ΔCSNAP in 5% milk–TBS-T. Bound CSN^ΔCSNAP was visualized by incubating with anti-CSN3 (ab79698) antibody (1:10,000, overnight) and goat-anti-rabbit-HRP secondary antibody (1:10,000, 1 h).
Experimental for recombinant CSN complex: To generate an optimized C-CSNAP peptide, we used the peptide array methodology. The array was designed to screen for the optimal peptide length, sequence, and stability (Fig 3A). A recombinant CSN complex was expressed, purified, and screened for binding to the peptide array by using an anti-CSN3 antibody. To rule out non-specific binding of the probing antibody, a control experiment was carried out without the addition of the CSN complex (Fig 3A right panel).
C-CSNAP peptide and its derivatives were synthesized on a microarray. The array was blocked and incubated with or without the COP9 signalosome complex (CSN) and probed using an anti-CSN3 antibody and HRP-conjugated secondary antibody. To assess non-specific binding of the antibodies to the array, anti-CSN3 and anti-GAR–HRP were used without the addition of the CSN. Signal intensity of each spot was measured and normalized to the intensity of the spot of C-CSNAP (A1). Measured values for each spot were averaged from six arrays and plotted with SEM. […] (A) A representative image of the peptide array (left) and the background (right). (B) Elongation of the C-terminal 16 amino acids (green) with one residue at a time based on the full-length sequence. […] (F) Single D-amino acid substitution at various positions.
as §1, §2

Regarding “LLMDLAANEKAVHADFFNDFEDLFDDDDIQ [Position A15, CSNAP residues 28-57]”, the “Average fold change, intensities as fold of C-CSNAP (A1)” value (“Average fold change, intensities” for short) in the assay on recombinant CSN complex is on record as 0.9771 fold of C-CSNAP (A1). Moreover, the Average fold change with CSN^ΔCSNAP complex (setting [1]) stood at 1.2034 fold.

Take “DFFN-Aib-FEDLF-Aib-DDDI-Aib [Position H17, C-CSNAP with Aib incorporation (46,52,57)]”: the “Average fold change, intensities” value in the assay on recombinant CSN complex is 0.3449 fold of C-CSNAP (A1); with CSN^ΔCSNAP complex (setting [2]), 0.7091 fold. Besides, in the assay on recombinant CSN complex (rCSN^WT peptide array, replicate: Experiment #1, left array), the “intensities as fold of C-CSNAP (A1), Experiment #1 left” value is listed as 0.3158 fold of C-CSNAP (A1). The “intensities as fold of C-CSNAP (A1), Experiment #1 right” value in the assay with recombinant CSN complex (rCSN^WT peptide array, replicate: Experiment #1, right array) is on record as 0.2689 fold of C-CSNAP (A1). The “intensities as fold of C-CSNAP (A1), Experiment #2 left” value in the assay with recombinant CSN complex (rCSN^WT peptide array, replicate: Experiment #2, left array) is on record as 0.1472 fold of C-CSNAP (A1). The “intensities as fold of C-CSNAP (A1), Experiment #2 right” value in the assay on recombinant CSN complex (rCSN^WT peptide array, replicate: Experiment #2, right array) is reported as 0.2740 fold of C-CSNAP (A1). Further, in the assay with recombinant CSN complex (rCSN^WT peptide array, replicate: Experiment #3, left array), the “intensities as fold of C-CSNAP (A1), Experiment #3 left” value is listed as 0.2292 fold of C-CSNAP (A1). In the assay with recombinant CSN complex (rCSN^WT peptide array, replicate: Experiment #3, right array), the “intensities as fold of C-CSNAP (A1), Experiment #3 right” value is listed as 0.8343 fold of C-CSNAP (A1).

With DFFNEFEELFEDEEIQ [D46,49,52,54,55E], the figures for the Average fold change in the assay on recombinant CSN complex and in the assay with CSN^ΔCSNAP complex (setting [2]) were 0.5968 fold and 1.2301 fold of C-CSNAP (A1), respectively.

With DFFNDFEELFEEDEIQ [D49,52,53,55E], the Average fold change with recombinant CSN complex is given as 0.6996 fold; with CSN^ΔCSNAP complex (setting [2]), 1.1749 fold of C-CSNAP (A1).

As to EFFNEFEELFEDEEIQ [D42,46,49,52,54,55E], the Average fold change with recombinant CSN complex is on record as 0.2605 fold; with CSN^ΔCSNAP complex (setting [2]), 1.1157 fold of C-CSNAP (A1).

On to “EMFPEGAGPYVDLDEAGGSTGLLMDLAANEKAVHADFFNDFEDLFDDDDIQ [Position B12, CSNAP residues 7-57]”, for which the “Average fold change, intensities” value with recombinant CSN complex was 0.8904 fold of C-CSNAP (A1). In addition, in the assay with CSN^ΔCSNAP complex (setting [1]), the Average fold change was determined as 1.1057 fold.

With EFFNDFEELFEDDEIQ [D42,49,52,55E], the Average fold change with recombinant CSN complex is recorded as 0.7529 fold; with CSN^ΔCSNAP complex (setting [2]), 0.9030 fold of C-CSNAP (A1).

Turning to “DFFNDFEDLFDDDDAQ [Position C10, C-CSNAP, Ala substitution I56A]”, in the assay on recombinant CSN complex, the “Average fold change, intensities” value is recorded as 1.1392 fold of C-CSNAP (A1). Also, in the assay on CSN^ΔCSNAP complex (setting [1]), the Average fold change was found to be 1.2151 fold.

For “EFFNDFEELFEDDDIQ [E 9, C-CSNAP, Asp to Glu substitution D42,49,52E]”, the “Average fold change, intensities” value in the assay on recombinant CSN complex was 0.6782 fold of C-CSNAP (A1). Also, the Average fold change in the assay with CSN^ΔCSNAP complex (setting [2]) is reported as 1.0112 fold of C-CSNAP (A1).

On to DFFNEFEELFEEEDIQ [D46,49,52,53,54E], for which the values for the Average fold change in the assay with recombinant CSN complex and with CSN^ΔCSNAP complex (setting [2]) were 0.5724 fold and 1.3745 fold of C-CSNAP (A1), respectively.

In the case of EFFNDFEELFEEEEIQ [D42,49,52,53,54,55E], the figures for the Average fold change in the assay on recombinant CSN complex and with CSN^ΔCSNAP complex (setting [2]) were 0.6132 fold and 0.9207 fold of C-CSNAP (A1), respectively.

For the substance “EGAGPYVDLDEAGGSTGLLMDLAANEKAVHADFFNDFEDLFDDDDIQ [B 8, CSNAP residues 11-57]”, in the assay on recombinant CSN complex, the “Average fold change, intensities” value is given as 0.8775 fold of C-CSNAP (A1). In the assay on CSN^ΔCSNAP complex (setting [1]), the Average fold change is on record as 0.9764 fold.

In the case of “DFFNEFEELFDEDDIQ [Position E14, C-CSNAP, Asp to Glu substitution D46,49,53E]”, in the assay on recombinant CSN complex, the “Average fold change, intensities” value is listed as 0.6197 fold of C-CSNAP (A1). The Average fold change in the assay with CSN^ΔCSNAP complex (setting [2]) was 0.9920 fold of C-CSNAP (A1).

As to “EFFNEFEELFDDDDIQ [E 4, C-CSNAP, Asp to Glu substitution D42,46,49E]”, the “Average fold change, intensities” value in the assay with recombinant CSN complex was 0.8374 fold of C-CSNAP (A1). In addition, in the assay with CSN^ΔCSNAP complex (setting [2]), the Average fold change is given as 0.8106 fold of C-CSNAP (A1).

“EFFNEFEELFEEEEIQ [D42,46,49,52,53,54,56E]”: the values for the Average fold change with recombinant CSN complex and in the assay with CSN^ΔCSNAP complex (setting [2]) were 0.5923 fold and 1.1160 fold of C-CSNAP (A1), respectively.

In the case of “DFFNDFEELFEDDDIQ [Position D21, C-CSNAP, Asp to Glu substitution D49,52E]”, the “Average fold change, intensities” value in the assay with recombinant CSN complex is recorded as 0.6335 fold of C-CSNAP (A1). Also, the Average fold change in the assay with CSN^ΔCSNAP complex (setting [2]) is reported as 1.3626 fold of C-CSNAP (A1).

Regarding “DFWNDFEDLFDDDDIQ [Position C13, C-CSNAP, Phe to Trp substitution F44W]”, the “Average fold change, intensities” value in the assay with recombinant CSN complex was 0.8173 fold of C-CSNAP (A1). For the same substance, in the assay with CSN^ΔCSNAP complex (setting [2]), the Average fold change is listed as 1.2883 fold of C-CSNAP (A1).

As for EFFNEFEELFEDDDIQ [D42,46,49,52E], the Average fold change in the assay on recombinant CSN complex is given as 0.5168 fold; with CSN^ΔCSNAP complex (setting [2]), 1.0318 fold of C-CSNAP (A1).

As to “DFFNDFEDLFDDEDIQ [D 8, C-CSNAP, Asp to Glu substitution D54E]”, in the assay with recombinant CSN complex, the “Average fold change, intensities” value is 0.9836 fold of C-CSNAP (A1). In addition, the Average fold change in the assay with CSN^ΔCSNAP complex (setting [2]) was 1.1238 fold of C-CSNAP (A1).

In the case of “DFFNDFEDLFDEDDIQ [D 7, C-CSNAP, Asp to Glu substitution D53E]”, in the assay on recombinant CSN complex, the “Average fold change, intensities” value is listed as 0.9008 fold of C-CSNAP (A1). Further, in the assay with CSN^ΔCSNAP complex (setting [2]), the Average fold change is reported as 1.1500 fold of C-CSNAP (A1).

Consider “KPAVDEMFPEGAGPYVDLDEAGGSTGLLMDLAANEKAVHADFFNDFEDLFDDDDIQ [Position B17, CSNAP residues 2-57]”, for which the “Average fold change, intensities” value with recombinant CSN complex is on record as 1.0902 fold of C-CSNAP (A1). Also, the Average fold change in the assay with CSN^ΔCSNAP complex (setting [1]) came to 1.3898 fold.

Turning to “DLAANEKAVHADFFNDFEDLFDDDDIQ [Position A12, CSNAP residues 31-57]”, the “Average fold change, intensities” value in the assay with recombinant CSN complex is recorded as 0.9978 fold of C-CSNAP (A1). In addition, the Average fold change in the assay with CSN^ΔCSNAP complex (setting [1]) stood at 1.0405 fold.

“EFFNDFEELFDDDDIQ [Position D11, C-CSNAP, Asp to Glu substitution D42,49E]”: the “Average fold change, intensities” value in the assay with recombinant CSN complex is recorded as 0.8480 fold of C-CSNAP (A1). The Average fold change with CSN^ΔCSNAP complex (setting [2]) is 1.0773 fold of C-CSNAP (A1).

“DFFNDFEELFEDDEIQ [Position E19, C-CSNAP, Asp to Glu substitution D49,52,55E]”: the “Average fold change, intensities” value in the assay on recombinant CSN complex is 0.6448 fold of C-CSNAP (A1). Further, in the assay with CSN^ΔCSNAP complex (setting [2]), the Average fold change was 1.0909 fold of C-CSNAP (A1).

On to DFFNEFEELFEEEEIQ [D46,49,52,53,54,55E], for which the Average fold change in the assay with recombinant CSN complex was 0.5470 fold; in the assay on CSN^ΔCSNAP complex (setting [2]) it was 1.0133 fold of C-CSNAP (A1).

Consider EFFNDFEELFEDEDIQ [D42,49,52,54E], for which the Average fold change with recombinant CSN complex is reported as 0.7100 fold; with CSN^ΔCSNAP complex (setting [2]), 1.0950 fold of C-CSNAP (A1).

On to “EFFNDFEELFDDEDIQ [Position E11, C-CSNAP, Asp to Glu substitution D42,49,54E]”, for which the “Average fold change, intensities” value in the assay on recombinant CSN complex was 0.6850 fold of C-CSNAP (A1). The Average fold change in the assay with CSN^ΔCSNAP complex (setting [2]) is 0.8932 fold of C-CSNAP (A1).

Turning to EFFNEFEELFEDDEIQ [D42,46,49,52,55E], the figures for the Average fold change with recombinant CSN complex and in the assay on CSN^ΔCSNAP complex (setting [2]) were 0.5210 fold and 0.9893 fold of C-CSNAP (A1), respectively.

“DWWNDFEDLFDDDDIQ [Position C16, C-CSNAP, Phe to Trp substitution F43,44W]”: the “Average fold change, intensities” value in the assay with recombinant CSN complex is 0.7427 fold of C-CSNAP (A1). Further, the Average fold change with CSN^ΔCSNAP complex (setting [2]) is 1.3233 fold of C-CSNAP (A1).

Regarding “VHADFFNDFEDLFDDDDIQ [A 4, CSNAP residues 39-57]”, the “Average fold change, intensities” value in the assay with recombinant CSN complex was 1.1190 fold of C-CSNAP (A1). Also, in the assay on CSN^ΔCSNAP complex (setting [1]), the Average fold change came out at 0.9552 fold.

EFFNDFEELFEEDDIQ [D42,49,52,53E]: the Average fold change in the assay with recombinant CSN complex was 0.7257 fold; in the assay with CSN^ΔCSNAP complex (setting [2]), 0.8283 fold of C-CSNAP (A1).
